Test results published in patent US20090298814A1, “Novel salts of conjugated psychotropic drugs and processes of preparing same” (RAMOT AT TEL AVIV UNIVERISTY LTD, priority 2005, published 2009).
Where a name gives a salt, the structure may show the parent alone.

What was measured:
Format in all cases: physicochemical
[1] = Chemical stability of mesylate and maleate salts by HPLC under various storage conditions
[2] = Solubility in 1% weight/volume lactic acid solution; settings: agitated 1 hour at room temperature, listed as maleate salt
Description: 1.0 gram of each of the mesylate and maleate addition salts prepared as described herein was agitated in 10 ml of 1% weight/volume lactic acid solution for 1 hour at room temperature. Any solids remaining thereafter were filtered off and the filtrate was dried under vacuum until no further change in weight was detected. […] The calculated solubility obtained for the mesylate salt was more than 100 mg/ml.

[3] = Chemical stability of mesylate and maleate salts by HPLC under various storage conditions; remark: listed apart in the source
Description: The chemical stability of the conjugates was determined by HPLC analyses and was measured by the relative peak areas of the substance and of at least one of its degradation products. Thus, as is further exemplified in the Examples section that follows, the chemical stability of the exemplary conjugates described above was measured during time periods that typically ranged from 1 day to 24 days, whereby the conjugates were kept in sealed or open containers, with or without nitrogen atmosphere, and at a temperature range of from −20° C. to 40° C.
HPLC analyses were performed on a Water 2695 Separations Module, using a Luna C18 (2) 50 mm×4.6 mm×3 um column, a 5 μl injection volume and a 2487 dual wavelength detector under the following instrumental conditions: Mobile phase A: 0.1% formic acid; Mobile phase B: acetonitrile; Flow rate: 0.5 ml per minute; Mobile phase gradient: 0.0 minutes 90% A, 10% B, 14.0 minutes 20% A, 80% B, 15.0 minutes 90% A, 10% B and 20.0 minutes 90% A, 10% B; Run time: 20 minutes; Detection: UV at 254 nm; Column temperature: 40° C.
(§1) Stability and hygroscopicity studies of the mesylate and maleate salts of the conjugate were carried out under various conditions. The hygroscopicity of the salts was determined by following the water content of the salt using the Karl Fischer (KF) titration analysis method. The chemical stability of the salts was determined by following the appearance of the degradation product perphenazine using HPLC analyses. The samples were kept at −20° C. under nitrogen, at room temperature in an open container, at room temperature in a sealed container and at 40° C. in a sealed container. The samples were tested at the end of the preparation procedure (t=0), 72 hours after the preparation time (t=72), 1 week after the preparation time (t=168) and two weeks after the preparation time (t=336).

[4] = Hygroscopicity of mesylate and maleate salts by Karl Fischer titration
Description: Water absorption and content measurements were carried out using a Karl Fischer (KF) titrator. Karl Fischer titration is a classic method in analytical chemistry that uses calometric titration to determine the moisture content of a sample, which is specific to water. The titration reaction taking place in the presence of a base and 50:50 methanol:dichloromethane as a titration solvent.
The accurately weighted samples (near 100 mg) of the tested compound were placed in the titrator to determine the amount of sample required for measuring 10-250 μg of water, and the water content was calculated accordingly.
as §1

[5] = open container at room temperature, five weeks (about 840 hours)
[6] = Open container kept at room temperature, t = 0 hours
[7] = Open container kept at room temperature, t = 72 hours
[8] = Open container kept at room temperature, t = 168 hours
[9] = Open container kept at room temperature, t = 336 hours
[10] = Sealed container kept at 40° C., t = 0 hours
[11] = Sealed container kept at 40° C., t = 72 hours
[12] = Sealed container kept at 40° C., t = 168 hours
[13] = Sealed container kept at 40° C., t = 336 hours
[14] = Sealed container kept at room temperature, t = 0 hours
[15] = Sealed container kept at room temperature, t = 72 hours
[16] = Sealed container kept at room temperature, t = 168 hours
[17] = Sealed container kept at room temperature, t = 336 hours
[18] = Sealed container kept at −20° C. under N2, t = 0 hours
[19] = Sealed container kept at −20° C. under N2, t = 72 hours
[20] = Sealed container kept at −20° C. under N2, t = 168 hours
[21] = Sealed container kept at −20° C. under N2, t = 336 hours

With `NCCCC(=O)OCCN1CCN(CCCN2c3ccccc3Sc3ccc(Cl)cc32)CC1` [maleate addition salt] the “purity (HPLC)” value [1, 5] was 94.98%, the “texture and color after storage” value ([1]; room temperature, open to the atmosphere, listed as maleate salt) was “slightly discolored, changing from yellow to light orange but stayed as a free flowing solid” and the calculated solubility [2] was 48 mg/mL. The Salt peak area [3, 6] was 96.54%, the “Unidentified impurity peak area” value [3, 6] was 1.05% and the perphenazine peak area [3, 6] was 1.44%. For the same molecule, the Salt peak area [3, 7] was 96.43%, the “Unidentified impurity peak area” value [3, 7] was 0.98% and the perphenazine peak area [3, 7] was 1.44%. The Salt peak area [3, 8] was 96.82%, the “Unidentified impurity peak area” value [3, 8] was 0.94% and the perphenazine peak area [3, 8] was 1.46%. For the same molecule, the Salt peak area [3, 9] was 96.00%, the “Unidentified impurity peak area” value [3, 9] was 0.93% and the perphenazine peak area [3, 9] was 1.43%. The Salt peak area [3, 10] was 96.54%, the “Unidentified impurity peak area” value [3, 10] was 1.05% and the perphenazine peak area [3, 10] was 1.44%. For the same molecule, the Salt peak area [3, 11] was 94.96%, the “Unidentified impurity peak area” value [3, 11] was 2.16% and the perphenazine peak area [3, 11] was 1.52%. For the same molecule, the Salt peak area [3, 12] was 94.32%, the “Unidentified impurity peak area” value [3, 12] was 2.46% and the perphenazine peak area [3, 12] was 1.65%. The Salt peak area [3, 13] was 92.93%, the “Unidentified impurity peak area” value [3, 13] was 2.79% and the perphenazine peak area [3, 13] was 1.80%. The Salt peak area [3, 14] was 96.54%, the “Unidentified impurity peak area” value [3, 14] was 1.05% and the perphenazine peak area [3, 14] was 1.44%. The Salt peak area [3, 15] was 96.24%, the “Unidentified impurity peak area” value [3, 15] was 1.09% and the perphenazine peak area [3, 15] was 1.43%. For the same molecule, the Salt peak area [3, 16] was 96.86%, the “Unidentified impurity peak area” value [3, 16] was 1.11% and the perphenazine peak area [3, 16] was 1.40%. The Salt peak area [3, 17] was 95.69%, the “Unidentified impurity peak area” value [3, 17] was 1.24% and the perphenazine peak area [3, 17] was 1.47%. The Salt peak area [3, 18] was 96.54%, the “Unidentified impurity peak area” value [3, 18] was 1.05% and the perphenazine peak area [3, 18] was 1.44%. The Salt peak area [3, 19] was 96.79%, the “Unidentified impurity peak area” value [3, 19] was 0.99% and the perphenazine peak area [3, 19] was 1.38%. The Salt peak area [3, 20] was 96.85%, the “Unidentified impurity peak area” value [3, 20] was 0.98% and the perphenazine peak area [3, 20] was 1.39%. For the same molecule, the Salt peak area [3, 21] was 96.69%, the “Unidentified impurity peak area” value [3, 21] was 1.03% and the perphenazine peak area [3, 21] was 1.39%. For the same molecule, the stability in words ([3]; all storage conditions of Table 8) was “stable in all sample forms”, the “stability and hygroscopicity in words” value ([3]; as compared to the HCl and mesylate salt) was “more stable and less hygroscopic” and the “perphenazine (HPLC)” value [3, 5] was 1.46%. For the same molecule, the Water content % [4, 6] was 0.3%, the Water content % [4, 7] was 0.7% and the Water content % [4, 8] was 0.8%. For the same molecule, the Water content % [4, 9] was 0.8%, the Water content % [4, 10] was 0.3% and the Water content % [4, 11] was 0.5%. For the same molecule, the Water content % [4, 12] was 0.7%, the Water content % [4, 13] was 0.7% and the Water content % [4, 14] was 0.3%. For the same molecule, the Water content % [4, 15] was 0.5%, the Water content % [4, 16] was 0.8% and the Water content % [4, 17] was 0.5%. For the same molecule, the Water content % [4, 18] was 0.3%, the Water content % [4, 19] was 0.3% and the Water content % [4, 20] was 0.3%. It also gave a Water content % [4, 21] of 0.5% and a water content [4, 5] of 0.91%.
